Several values for one entry are separate records, joined by “and”; a condition that tells them apart may be missing. Identical values can stand only once.
Tests used:
[1] = Metabolic stability, rat liver microsomes (phase I and II)
Method: Mouse, rat, and pooled human liver microsomes were purchased from a commercial source (Corning) and stored at -80 °C. NADPH generating system solutions A and B and UGT reaction mix solutions A and B (Corning) were kept at -20°C. The test compound and the reference compounds diclofenac (MW […]
microsomal stability assay was carried out based on the BD Biosciences Guidelines for Use (TF000017 Rev1.0) with minor adaptations. Metabolic stability of the compounds was studied through the CYP450 superfamily (phase I metabolism) by fortification with reduced nicotinamide adenine dinucleotide phosphate (NADPH) and through uridine glucuronosyl-transferase (UGT) enzymes (phase II metabolism) by fortification with uridine diphosphate glucuronic acid (UDPGA). For the CYP450 and other NADPH dependent enzymes, both compounds were incubated at 5 µM together with 0.5 mg mL-1 liver microsomes in potassium phosphate buffer in a reaction started by the addition of 1 mM NADPH […]
At these time points, 20 µL was withdrawn from the reaction mixture and 80 µL cold acetonitrile (ACN) containing the internal standard tolbutamide, was added to inactivate the enzymes and precipitate the proteins. The mixture was vortexed for 30 s and centrifuged at 4 °C for 5 min at 15,000 rpm. The supernatant was stored at -80°C until analysis. For the UGT enzymes, both compounds were incubated at 5 µM together with 0.5 mg mL-1 liver microsomes in a reaction started by the addition of 2 mM UDPGA cofactor. The corresponding loss of parent compound was determined using liquid chromatography (UPLC) (Waters AquityTM) coupled with tandem quadrupole mass spectrometry (MS²) (Waters XevoTM), equipped with an electrospray ionization (ESI) interface and operated in multiple reaction monitoring (MRM) mode. […]

[2] = test system: T. b. brucei AnTAR1.1 PPYRE9; assay: Mouse model of stage 2 HAT (BLI, parasitaemia, SL-RNA qPCR); assay type: in vivo; conditions: for BLI of the head region, RLU data: individual animals
Method: […] Treatment was initiated at 21 dpi. […] Mice were injected i.p. with […] of D-luciferin and anaesthetised using isoflurane. The luminescent signal was acquired from both the dorsal and ventral side of the animals. […] Animals subjected to the different treatment schemes (from 4 wpi) were additionally imaged over a 5 min exposure time for enhanced sensitivity. […] Tissues were weighed and RNA was extracted using the RNeasy Plus Mini Kit (Qiagen) according to the manufacturer’s recommendations. […] A list of primers used is provided in the Supplementary Methods section of the Supplementary Information. BLI images from the IVIS Spectrum In Vivo Imaging System (Perkin Elmer) were analysed using LivingImage v4.3.1. SoftWoRx suite 2.0 for microscopy (image deconvolution), then processing using the Fiji software.

T. brucei NY-SM cells = assay: Cell cycle analysis by flow cytometry; assay type: cell-based, Trypanosoma brucei
Method: After 24 h, the cells were harvested and washed with PBS before staining with Hoechst 33342 at 5 µg mL^−1 for 25 min at 37 °C. Cells were analysed on a MACSQuant flow cytometer (Miltenyi Biotec) using the FlowJo X software package.

[3] = test system: T. brucei Lister 427 cells; assay: Nucleotide pool analysis (HPLC); assay type: cell-based, Trypanosoma brucei; conditions: 25 μM, versus untreated trypanosomes
Description: (1 picture or pasted object on this page, not shown here)
The following primers were used: […]

[4] = oral 6.25 mg kg^−1 s.i.d. for 5 days
[5] = oral 12.5 mg kg^−1 s.i.d. for 5 days
[6] = oral 25 mg kg^−1 s.i.d. for 5 days

Nc1ncnc2c1ccn2[C@@H]1O[C@H](CO)C[C@H]1O [Compound 9, 3’-deoxytubercidin]
% analogue remaining, EXP 1 / EXP 2 ([1]; microsomes, 0 min, 5 µM): 100%
% analogue remaining, Mean ([1]; microsomes, 0 min, 5 µM): 100%
metabolic stability ([1]; s9, 0.5 h): metabolically stable
RLU data, individual mice ([2]; 6.25 mg/kg SID, 3 wpi): 1622000 RLU and 3182000 RLU and 2182000 RLU
RLU data, individual mice ([2]; 6.25 mg/kg SID, 4 wpi): 193100 RLU and 167700 RLU and 117800 RLU
RLU data, individual mice ([2]; 6.25 mg/kg SID, 5 wpi): 198100 RLU and 192400 RLU and 180700 RLU
RLU data, individual mice ([2]; 6.25 mg/kg SID, 6 wpi): 97950 RLU and 93770 RLU and 90330 RLU
RLU data, individual mice ([2]; 6.25 mg/kg SID, 7 wpi): 113500 RLU and 105600 RLU and 105900 RLU
RLU data, individual mice ([2]; 6.25 mg/kg SID, 8 wpi): 131900 RLU and 113000 RLU and 102800 RLU
RLU data, individual mice ([2]; 6.25 mg/kg SID, 9 wpi): 108500 RLU and 102400 RLU and 89250 RLU
RLU data, individual mice ([2]; 6.25 mg/kg SID, 11 wpi): 85510 RLU and 79310 RLU and 77130 RLU
RLU data, individual mice ([2]; 6.25 mg/kg SID, 12 wpi): 86540 RLU and 80590 RLU and 72940 RLU
RLU data, individual mice ([2]; 6.25 mg/kg SID, 14 wpi): 72880 RLU and 70430 RLU and 75490 RLU
RLU data, individual mice ([2]; 12.5 mg/kg SID, 3 wpi): 11680000 RLU and 7405000 RLU
RLU data, individual mice ([2]; 12.5 mg/kg SID, 4 wpi): 129800 RLU and 121500 RLU
RLU data, individual mice ([2]; 12.5 mg/kg SID, 5 wpi): 117000 RLU and 123200 RLU
RLU data, individual mice ([2]; 12.5 mg/kg SID, 6 wpi): 100200 RLU and 88860 RLU
RLU data, individual mice ([2]; 12.5 mg/kg SID, 7 wpi): 107000 RLU and 110100 RLU
RLU data, individual mice ([2]; 12.5 mg/kg SID, 8 wpi): 112000 RLU and 128000 RLU
RLU data, individual mice ([2]; 12.5 mg/kg SID, 9 wpi): 99900 RLU and 94080 RLU
RLU data, individual mice ([2]; 12.5 mg/kg SID, 11 wpi): 77540 RLU and 81340 RLU
RLU data, individual mice ([2]; 12.5 mg/kg SID, 12 wpi): 79330 RLU and 83380 RLU
RLU data, individual mice ([2]; 12.5 mg/kg SID, 14 wpi): 72090 RLU and 77840 RLU
RLU data, individual mice ([2]; 25 mg/kg BID, 3 wpi): 4672000 RLU and 30200000 RLU
RLU data, individual mice ([2]; 25 mg/kg BID, 4 wpi): 134400 RLU and 112900 RLU
RLU data, individual mice ([2]; 25 mg/kg BID, 5 wpi): 112900 RLU and 115900 RLU
RLU data, individual mice ([2]; 25 mg/kg BID, 6 wpi): 102800 RLU and 99010 RLU
RLU data, individual mice ([2]; 25 mg/kg BID, 7 wpi): 102400 RLU and 91660 RLU
RLU data, individual mice ([2]; 25 mg/kg BID, 8 wpi): 110100 RLU and 102600 RLU
RLU data, individual mice ([2]; 25 mg/kg BID, 9 wpi): 102800 RLU and 96280 RLU
RLU data, individual mice ([2]; 25 mg/kg BID, 11 wpi): 72280 RLU and 73020 RLU
RLU data, individual mice ([2]; 25 mg/kg BID, 12 wpi): 82420 RLU and 78930 RLU
RLU data, individual mice ([2]; 25 mg/kg BID, 14 wpi): 77680 RLU and 76600 RLU
RLU data, individual mice ([2]; 25 mg/kg SID, 3 wpi): 2495000 RLU and 617400 RLU and 13720000 RLU
RLU data, individual mice ([2]; 25 mg/kg SID, 4 wpi): 173900 RLU and 151500 RLU and 120200 RLU
RLU data, individual mice ([2]; 25 mg/kg SID, 5 wpi): 135900 RLU and 123400 RLU and 110100 RLU
RLU data, individual mice ([2]; 25 mg/kg SID, 6 wpi): 109500 RLU and 97640 RLU and 94120 RLU
RLU data, individual mice ([2]; 25 mg/kg SID, 7 wpi): 98810 RLU and 105800 RLU and 87010 RLU
RLU data, individual mice ([2]; 25 mg/kg SID, 8 wpi): 114800 RLU and 132100 RLU and 110100 RLU
RLU data, individual mice ([2]; 25 mg/kg SID, 9 wpi): 104700 RLU and 110500 RLU and 91280 RLU
RLU data, individual mice ([2]; 25 mg/kg SID, 11 wpi): 73650 RLU and 88470 RLU and 81640 RLU
RLU data, individual mice ([2]; 25 mg/kg SID, 12 wpi): 90290 RLU and 88590 RLU and 87820 RLU
RLU data, individual mice ([2]; 25 mg/kg SID, 14 wpi): 78620 RLU and 86010 RLU and 72810 RLU
BLI of the head region, RLU data ([2]; 3 wpi (start of treatment, 21 dpi)): 48700000 RLU and 33400000 RLU
BLI of the head region, RLU data ([2]; 4 wpi): 98400 RLU and 114000 RLU
BLI of the head region, RLU data ([2]; 5 wpi): 100000 RLU and 105000 RLU
BLI of the head region, RLU data ([2]; 6 wpi): 109000 RLU and 110000 RLU
BLI of the head region, RLU data ([2]; 7 wpi): 99500 RLU and 92000 RLU
BLI of the head region, RLU data ([2]; 8 wpi): 107000 RLU and 96700 RLU
BLI of the head region, RLU data ([2]; 9 wpi): 90800 RLU and 104000 RLU
BLI follow-up of surviving mice up to 14 wpi ([2]; mouse, in vivo): did not reveal any signs of relapse
bioluminescent imaging (BLI) [2, 4]: total clearance in all organs including the CNS
blood parasitaemia up to 9 wpi [2, 4]: negative blood parasitaemia
bioluminescent imaging (BLI) [2, 5]: total clearance in all organs including the CNS
blood parasitaemia up to 9 wpi [2, 5]: negative blood parasitaemia
bioluminescent imaging (BLI) ([2]; oral 25 mg kg^−1 b.i.d. for 5 days): total clearance of all organs, including the CNS
blood parasitaemia and survival at 9 wpi ([2]; oral 25 mg kg^−1 b.i.d. for 5 days from 21 dpi): negative blood parasitaemia and survived the pre-set endpoint
bioluminescent imaging (BLI) [2, 6]: total clearance in all organs including the CNS
blood parasitaemia up to 9 wpi [2, 6]: negative blood parasitaemia
parasite burdens in brain, spleen and fat by SL-RNA qPCR ([2]; tissues collected at 121 dpi): complete absence of parasite burdens
luminescent signal in the head region ([2]; to levels similar to a non-infected control mouse): rapid decline of the signal
# cells 2N (T. brucei NY-SM cells; 1.4 nM): 18946 and 19862
# cells 4N (T. brucei NY-SM cells; 1.4 nM): 4825 and 4846
# cells S (T. brucei NY-SM cells; 1.4 nM): 16441 and 16011
% of cells 2N (T. brucei NY-SM cells; 1.4 nM): 44.3% and 46.2%
% of cells 4N (T. brucei NY-SM cells; 1.4 nM): 11.3%
% of cells S (T. brucei NY-SM cells; 1.4 nM): 38.5% and 37.2%
# cells 2N (T. brucei NY-SM cells; 3.5 nM): 19884 and 19251
# cells 4N (T. brucei NY-SM cells; 3.5 nM): 4669 and 4555
# cells S (T. brucei NY-SM cells; 3.5 nM): 15056 and 15140
% of cells 2N (T. brucei NY-SM cells; 3.5 nM): 47.3% and 46.7%
% of cells 4N (T. brucei NY-SM cells; 3.5 nM): 11.1%
% of cells S (T. brucei NY-SM cells; 3.5 nM): 35.9% and 36.8%
# cells 2N (T. brucei NY-SM cells; 7 nM): 18100 and 17699
# cells 4N (T. brucei NY-SM cells; 7 nM): 3787 and 3626
# cells S (T. brucei NY-SM cells; 7 nM): 10717 and 10604
% of cells 2N (T. brucei NY-SM cells; 7 nM): 51.1% and 50%
% of cells 4N (T. brucei NY-SM cells; 7 nM): 10.7% and 10.2%
% of cells S (T. brucei NY-SM cells; 7 nM): 30.2% and 29.9%
cell cycle analysis: impact on DNA synthesis (T. brucei NY-SM cells; 24 h, various concentrations): no major impact on DNA synthesis
effect on intracellular purine and pyrimidine nucleotide pools [3]: did not cause any change in the balance or total quantity of intracellular purine and pyrimidine nucleotides
